The source of these data is publication PMC12126525, “Mechanism of ATP hydrolysis in the Hsp70 BiP nucleotide-binding domain” (Nature Communications, 2025).

Values joined by “and” are separate entries in the source; they are usually repeats but may differ in a detail not shown here. Identical values can stand only once.

In assay [1] the target is T1, BiP NBD (Homo sapiens, UniProt P11021). The assay can be described thus: Single turn-over assay (anion exchange quantification of ATP/ADP). The class given is biochemical. On the set-up: His6 (N, cleaved yes); made in house; host or cells: E. coli BL21-(DE3)-Lemo, pET28a vector. As for the experimental part:
We next set out to benchmark these kinetic parameters to independently measured values. Out of the 11 free parameters of the functional cycle, 3 parameters can be commonly accessed with classical experiments (kcat, koff2 and koff5 ). We benchmarked kcat with standard single-turn over experiments[44],[46]. For these experiments, the NBD·ATP complex is initially formed by incubation of an excess of ATP with BiP NBD at 4 °C. At this temperature, it is generally assumed that the hydrolysis rate can be neglected. Unbound nucleotides were removed by gel filtration and the purified NBD·ATP complex was flash frozen. The complex was then incubated at 37 °C for variable time, after which the reaction was quenched by addition of HCl. This step unfolds the NBD, thus immediately stopping the reaction and releasing all educts and products into solution. From the resulting samples, the [ATP]/[ADP] ratio was determined by anion exchange chromatography.
The single turnover experiment starts from a batch of stoichiometrically assembled NBD^ATP complex. ATP hydrolysis and ATP dissociation occur on parallel kinetic pathways, according to Eqs. (1) and (2). At very low protein concentrations [NBD^ATP]≪KD1 , rebinding of ATP after dissociation, as well as the buildup of the products ADP and Pi, can be neglected and the observed ATP decay follows the analytical equation35 ATP/ATP0=koff1/kcat*+kcat/kcat*e^−kcat*t with36 kcat*=kcat+koff1
At proteins concentrations [NBD^ATP]≳KD1 , as it was used in our experiments, ATP rebinding after dissociation cannot be neglected, which is competitive with the product ADP that builds up over time. […]
The ATPase activity of BiP NBD was determined under single-turnover conditions as previously described with minor modifications of the protocol. The main modification was to replace the radioactivity-based detection by a label free anion-exchange based quantification. […] The relative ATP/ADP ratio was determined using an anion chromatography-based assay.

Assay [2] addresses T1, BiP NBD. In words: NMR without ATP regeneration at variable ADP:ATP ratio with 3.3 mM calcium, with and without E2. The class given is biochemical. Conditions: replicates. On the set-up: His6 (N, cleaved yes); made in house; host or cells: E. coli BL21-(DE3)-Lemo, pET28a vector. An excerpt:
Finally, we wanted to explore the effect of calcium on conditions with variable ADP concentration that represent the conditions in the ER. We thus exploited our modular experimental setup in the absence of the ATP regeneration system, with and without phosphate, to generate conditions where the ADP concentration increases (Supplementary Fig. 18). We determined the ATP hydrolysis rate and the populations of the different states for different ADP:ATP ratios and phosphate concentrations. We observed NMR signals corresponding to the NBD·ADP·Ca^2+-bound state, but not the NBD·Ca^2+-bound state, with population and occupancy time increasing with the ADP concentration (Fig. 5e). When free phosphate was allowed to accumulate in parallel, the occupancy time of the NBD·ADP·Ca^2+ state decreased, showing that the phosphate prevents the calcium from binding (Fig. 5f).
Supplementary Figure 18. NBD·ADP·Ca2+ forms as an off-cycle pathway state. a, 2D [13C,1H]-TROSY spectrum of methyl-labeled NBD in the presence of ADP:ATP 1:3, 3.3 mM calcium ([Mg2+]/[Ca2+]=3) and E2 active. State- and sequence-specific resonance assignments are indicated for the ADP·Ca2+- bound state (dark-pink), ADP-bound (light blue), ADP·Pi-bound (dark blue) and ATP-bound (red) states. b, Selected sections of 2D [13C,1H]-methyl-TROSY spectra of residue Val50cg1 in the presence of ADP:ATP 1:3 (pink) and with 3.3 mM calcium ([Mg2+]/[Ca2+]=3) (black) compared to in-cyclo no calcium (pink) and the equilibrium experiments of NBD with 3.3 mM calcium ([Mg2+]/[Ca2+]=3) (ligh-pink), NBD with 1 mM ADP and 3.3 mM calcium ([Mg2+]/[Ca2+]=3) (dark-pink). c,d, same as in (a,b) for the system in the absence of E2, i.e the phosphate concentration increases with ATP hydrolysis.

T1 sequence (P11021 19-406): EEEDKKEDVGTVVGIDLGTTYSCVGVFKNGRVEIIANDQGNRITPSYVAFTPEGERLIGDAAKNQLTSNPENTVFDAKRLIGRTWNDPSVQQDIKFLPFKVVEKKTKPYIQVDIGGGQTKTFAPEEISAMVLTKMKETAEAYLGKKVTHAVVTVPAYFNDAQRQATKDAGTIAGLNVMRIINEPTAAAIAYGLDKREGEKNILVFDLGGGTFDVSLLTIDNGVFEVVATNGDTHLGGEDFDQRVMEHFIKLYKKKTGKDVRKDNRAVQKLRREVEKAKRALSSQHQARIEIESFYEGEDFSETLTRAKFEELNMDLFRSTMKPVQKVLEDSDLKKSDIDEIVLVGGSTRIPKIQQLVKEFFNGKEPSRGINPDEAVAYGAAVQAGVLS

As to `Nc1ncnc2c1ncn2[C@@H]1O[C@H](COP(=O)(O)OP(=O)(O)OP(=O)(O)O)[C@@H](O)[C@H]1O` [ATP], the “kcat* (single turn-over)” value on BiP NBD [1] (37 °C, monoexponential fit) was 0.071 s⁻¹ and 0.071 ± 0.02 s⁻¹. Besides, the “kcat single turn-over average” value on BiP NBD [1] (Supplementary Fig 11b) came out at 0.071 s⁻¹. Further, on BiP NBD [1] (Supplementary Fig 11b, replicates [1]-[6]), the kcat single turn-over was 0.085 s⁻¹ and 0.070 s⁻¹ and 0.057 s⁻¹ and 0.075 s⁻¹ and 0.073 s⁻¹.
As for `[Ca+2]` [calcium], the cycle at BiP NBD [2] (Fig 5e: with E2, 3.3 mM calcium, ADP:ATP 1:2) is 151.31 s and 139.92 s and 133.95 s; at BiP NBD [2] (Fig 5e: with E2, 3.3 mM calcium, ADP:ATP 1:3), 107.58 s and 118.91 s and 122.37 s; at BiP NBD [2] (Fig 5e: with E2, 3.3 mM calcium, ADP:ATP 1:4), 78.87 s and 92.84 s and 108.72 s; on BiP NBD [2] (Fig 5e: with E2, 3.3 mM calcium, ADP:ATP 1:5), 55.19 s and 43.78 s and 57.90 s; on BiP NBD [2] (Fig 5f: without E2, 3.3 mM calcium, ADP:ATP 1:2), 191.98 s and 221.37 s and 190.59 s; at BiP NBD [2] (Fig 5f: without E2, 3.3 mM calcium, ADP:ATP 1:3), 130.46 s and 156.85 s and 135.76 s. Further, the cycle on BiP NBD [2] (Fig 5f: without E2, 3.3 mM calcium, ADP:ATP 1:4) is 97.52 s and 113.75 s and 85.45 s; at BiP NBD [2] (Fig 5f: without E2, 3.3 mM calcium, ADP:ATP 1:5), 72.26 s and 65.96 s and 73.59 s.
